biological target: T1, Human ALDH1A3 (Homo sapiens, UniProt P47895); experiment: 1,536-well enzymatic assay (NADH fluorescence), ALDH1A3; assay type: biochemical; settings: not given
T1 construct: purchased ThermoFisher 11636H07E50
T1 sequence (P47895 1-512): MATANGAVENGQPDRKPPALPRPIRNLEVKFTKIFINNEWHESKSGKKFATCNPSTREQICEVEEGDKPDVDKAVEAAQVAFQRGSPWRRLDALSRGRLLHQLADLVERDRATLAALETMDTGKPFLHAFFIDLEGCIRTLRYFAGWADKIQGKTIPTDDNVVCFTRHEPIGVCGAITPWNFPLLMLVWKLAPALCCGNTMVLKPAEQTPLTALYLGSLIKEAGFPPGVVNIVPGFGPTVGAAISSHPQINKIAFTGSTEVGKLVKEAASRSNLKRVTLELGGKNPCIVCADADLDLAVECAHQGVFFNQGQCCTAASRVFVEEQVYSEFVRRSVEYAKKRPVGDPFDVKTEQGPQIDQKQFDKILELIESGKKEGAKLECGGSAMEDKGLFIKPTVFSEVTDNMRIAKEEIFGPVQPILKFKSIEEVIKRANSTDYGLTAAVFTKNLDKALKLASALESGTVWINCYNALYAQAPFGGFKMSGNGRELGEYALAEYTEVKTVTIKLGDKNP
From the text: To validate our optimized assay, we assembled a set of 20 previously reported ALDH inhibitors, with varying degrees of target specificity (Table 1 and S4 Fig). […] Briefly, the assay measures the dehydrogenase activity of recombinant human ALDH1A1, ALDH1A2, ALDH1A3, ALDH2 or ALDH3A1 using NAD(P)^+ and either propionaldehyde or benzaldehyde as substrates. An orthogonal resorufin-based assay format was also run with isolated ALDH1A1 to rule out potential false positives due to intrinsic compound fluorescence.
Human ALDH1A1 and ALDH3A1 were expressed and purified as described elsewhere. Human ALDH2 was purchased from Abcam (ab87415). Human ALDH1A2 and ALDH1A3 were purchased from MyBioSource (MBS1005929; San Diego, CA) and ThermoFisher (11636H07E50), respectively. The inhibitory activity of compounds against ALDHs was measured according to protocols described previously. Briefly, 3 μL of enzyme (final concentrations of 20 nM for ALDH1A1, 50 nM for ALDH1A2, 50 nM for ALDH1A3, 75 nM for ALDH2 and 5 nM for ALDH3A1) in assay buffer (100 mM HEPES pH 7.5 with 0.01% Tween 20) were dispensed into a 1,536-well solid-bottom black plate (Greiner Bio One, Monroe, NC). […] Samples were incubated (room temperature, protected from light) for 15 minutes followed by a 1 μL substrate addition of NAD^+ and Propionaldehyde (final concentrations of 1 mM and 80 μM, respectively) for ALDH1A1, 1A2, 1A3, and ALDH2 or NADP^+ and benzaldehyde (final concentrations of 1 mM and 200 μM, respectively) for ALDH3A1. Plates were centrifuged at 1,000 rpm for 15 seconds, then read in kinetic mode on a ViewLux High-throughput CCD imager (PerkinElmer, Waltham, MA) equipped with standard UV fluorescence optics (340 nm excitation, 450 nm emission) for 5 (ALDH1A1, ALDH1A2, ALDH2, ALDH3A1) or 30 (ALDH1A3) minutes. The change in fluorescence intensity over the 5- or 30-minute reaction period was normalized against no-inhibitor and no-enzyme controls and the resulting percent inhibition data were fitted to a 4-parameter Hill equation. Bay-11 7085 was used as intraplate control. To account for artifacts due to intrinsic compound fluorescence in the above spectrum, compounds were also tested in an orthogonal resorufin assay format with optics of excitation 525 nm/emission 598 nm as described before. The same parameters as the NADH assay were used for the resorufin assay, with the addition of (final) 133 μg/mL diaphorase and 37 μM resazurin to the assay solution. Same controls were used in both formats.

| Compound | IC50 [µM] |
| --- | --- |
| O=c1c(-c2ccc(O)cc2)coc2cc(O[C@@H]3O[C@H](CO)[C@@H](O)[C@H](O)[C@H]3O)ccc12 [Daidzin] | 24.1 |
| Cc1cc2c(C(C)C)c(O)c(O)c(C=O)c2c(O)c1-c1c(C)cc2c(C(C)C)c(O)c(O)c(C=O)c2c1O [Gossypol] | 8.55 |

same assay, conditions: hits of dual cell-based screen (Table 2); read-out: Biochemical IC50 ALDH1A3

| Compound | IC50 [µM] |
| --- | --- |
| C[S+](=O)([O-])c1ccc(Cn2c3c(c4cc(F)cc(F)c42)CCCC3CC(=O)O)cc1 [L-670596] | 35.5 |
| CC(C)N(C(=O)CCl)c1ccccc1 [Propachlor] | 5.62 |

same assay, conditions: validation set; 50 nM enzyme, NAD+ and propionaldehyde; read-out: Biochemical IC50 ALDH1A3

| Compound | IC50 [µM] |
| --- | --- |
| COc1ccc(C(=O)CCN(C)C)cc1F [Aldi-2] | 0.24 |
| CC(C)(C)c1ccc(S(=O)(=O)/C=C/C#N)cc1 [Bay-11-7085] | 0.68 |
| Cc1nc2ccccc2n1S(=O)(=O)c1ccc(F)cc1 [CB7] | 12.1 |
| CCOc1ccc(NCC(=O)Nc2ccc(Cl)cc2C)cc1 [CID 725345] | 3.82 |
| COc1cccc2cc(C(=O)CC3(O)C(=O)N(Cc4ccccc4)c4ccccc43)c(=O)oc12 (stereo not shown) [CID 2929292] | 24.1 |
| CCN(CC)c1ccc(C=O)cc1 [DEAB, 4-N,N-diethylaminobenzaldehyde] | 24.1 |

Results, then the compound that gave them:

| IC50 [µM] | Compound |
| --- | --- |
| 2.7 | CC(C)=CCCC(C)=CC=O (mixture of isomers) [Citral] |
| 0.68 | CCN(CC)C(=S)SSC(=S)N(CC)CC [Disulfiram] |
| 27 | Nc1ccccc1C(=O)CC(N)C(=O)O (stereo not shown) [Kynurenine] |
| 17 | C#CCN(C)Cc1ccccc1 [Pargyline] |
| 7.62 | O=C1Nc2ccccc2C1=O [indoline-2,3-dione] |
| 27 | CVT-10216 |
